From patent US11286236B2, “Compound, agent and composition for the suppression of cancer growth” (Vector Vitale IP LLC, priority 2018, dated 2022)

Key:
[1] = system: Mouse B16 melanoma cells (MM-4 cell line); assay: Cytotoxic/cytostatic activity of E2+85Rbe and antitumor drug added simultaneously; type: cell-based
Description: The effects of the complex action of various doses of the investigated substances were evaluated using the concept of synergistic, additive and antagonistic effects of the drugs. The mathematics are detailed below. […] The effects were calculated using the Chou-Talalay method according to the following equation (“CI” refers to the “combination index”) (see T.-C. […] Where both the ^85Rb-enriched rubidium salt (referred to as “E2+^85Rbe”) and an AD were administered, they were administered simultaneously.

[2] = system: Mouse melanoma cells (MM-4 cell line); assay: Cytotoxic effect of E2+85Rbe and antitumor drug added 24 hours apart; type: cell-based
Description: The effectiveness of the method of the invention that comprises administering antitumor drugs and ^85Rb-enriched rubidium salt of N-benzoyl-N-(4-toluenesulfonyl)-o-phenylenediamine of formula I was measured in the experiment. […] Both orders were tested: AD administered first (Scheme 2, below), and AD administered second (Scheme 1, below).
Materials and Methods: Mouse melanoma cells (MM-4 cell line) were seeded into 96-well plates (TPP, Italy), in DMEM (Biowest, France) supplemented with 10% newborn calf serum (Biowest, France) and […] gentamicin (Sigma, USA) at a seeding density of 5×10^4 cells/ml. The cells were then cultured in an incubator with a humidified atmosphere of 5% CO2 in air at 37° C. The experiment was carried out in accordance with the three schemes given below. The experiment was started 24 hours after the cells were seeded. For this purpose, the agents used in the method were introduced into the appropriate wells. The following schemes of introduction were used for the study:
Scheme 1) The ^85Rb-enriched rubidium salt of N-benzoyl-N′-(4-toluenesulfonyl)-o-phenylenediamine of formula I was introduced at the first stage in the following amounts: 2.0 μg/ml, 1.0 μg/ml, 0, 5 μg/ml, and one antitumor drug was introduced at the second stage (after 24 hours).
Scheme 2) An AD was introduced at the first stage at doses as indicated in Scheme 1 above and ^85Rb-enriched rubidium salt of N-benzoyl-N′-(4-toluenesulfonyl)-o-phenylenediamine of formula I was introduced at the second stage (after 24 hours) at the following doses: 2.0 μg/ml, 1.0 μg/ml, 0.5 μg/ml.
After all the agents were added into the wells, the cells were incubated at 37° C. and 5% CO2 for another 72 hours (96 hours in total after the cells were seeded).
As in example 2, the cytotoxic effect was determined as the percentage of the cell number with respect to the control after their treatment in accordance with the claimed method. The effects of the drugs were evaluated visually, which allowed us to examine the morphological pattern of the cytotoxic action of the drugs, and by staining the cells with crystal violet, followed by OD measurement at an excitation wavelength of 540 nm using a MultiSkan microplate spectrophotometer.
The effects of the complex action of various doses of the investigated substances were evaluated using the concept of synergistic, additive and antagonistic effects of the drugs, as for Example 2, and calculating CI as described in Example 2.
Each table sets forth the % of MM-4 cells that survived in the presence of the drug doses indicated in the in vitro experiments described above, expressed as a percentage of the cells in the control wells.

SMILES: COc1cccc2c1C(=O)c1c(O)c3c(c(O)c1C2=O)C[C@@](O)(C(=O)CO)C[C@@H]3O[C@H]1C[C@H](N)[C@H](O)[C@H](C)O1 [doxorubicin]
- % surviving MM-4 cells ([1]; doxorubicin 150 ng/ml alone): 14.4 ± 1.1%
- % surviving MM-4 cells ([1]; doxorubicin 175 ng/ml alone): 13 ± 0.1%
- % surviving MM-4 cells ([1]; doxorubicin 200 ng/ml alone): 9.1 ± 1.1%
- % surviving MM-4 cells ([1]; doxorubicin 300 ng/ml alone): 3.1 ± 0.1%
- % surviving MM-4 cells ([1]; doxorubicin 500 ng/ml alone): 0%
- % surviving MM-4 cells ([2]; doxorubicin 150 ng/ml alone, first stage): 14.4 ± 1.1%
- % surviving MM-4 cells ([2]; doxorubicin 150 ng/ml alone, second stage): 35.5 ± 0.8%
- % surviving MM-4 cells ([2]; doxorubicin 175 ng/ml alone, first stage): 13 ± 0.1%
- % surviving MM-4 cells ([2]; doxorubicin 200 ng/ml alone, first stage): 9.1 ± 1.1%
- % surviving MM-4 cells ([2]; doxorubicin 200 ng/ml alone, second stage): 24.8 ± 5.5%
- % surviving MM-4 cells ([2]; doxorubicin 300 ng/ml alone, first stage): 3.1 ± 0.1%
- % surviving MM-4 cells ([2]; doxorubicin 300 ng/ml alone, second stage): 12.2 ± 0.5%
- % surviving MM-4 cells ([2]; doxorubicin 500 ng/ml alone, first stage): 0%
- % surviving MM-4 cells ([2]; doxorubicin 500 ng/ml alone, second stage): 5.3 ± 0.9%

SMILES: CN(C)/N=N/c1[nH]cnc1C(N)=O [dacarbazine]
- % surviving MM-4 cells ([1]; dacarbazine 2.5 μg/ml alone): 21 ± 2.4%
- % surviving MM-4 cells ([1]; dacarbazine 5 μg/ml alone): 18.1 ± 0.2%
- % surviving MM-4 cells ([1]; dacarbazine 10 μg/ml alone): 11.6 ± 3%
- % surviving MM-4 cells ([1]; dacarbazine 20 μg/ml alone): 7.8 ± 0.5%
- % surviving MM-4 cells ([1]; dacarbazine 40 μg/ml alone): 3.5 ± 0.7%
- % surviving MM-4 cells ([2]; dacarbazine 2.5 μg/ml alone, first stage): 21 ± 2.4%
- % surviving MM-4 cells ([2]; dacarbazine 2.5 μg/ml alone, second stage): 40.7 ± 0.7%
- % surviving MM-4 cells ([2]; dacarbazine 5 μg/ml alone, first stage): 18.1 ± 0.2%
- % surviving MM-4 cells ([2]; dacarbazine 5 μg/ml alone, second stage): 30 ± 2.4%
- % surviving MM-4 cells ([2]; dacarbazine 10 μg/ml alone, first stage): 11.6 ± 3%
- % surviving MM-4 cells ([2]; dacarbazine 10 μg/ml alone, second stage): 19 ± 4%
- % surviving MM-4 cells ([2]; dacarbazine 20 μg/ml alone, first stage): 7.8 ± 0.5%
- % surviving MM-4 cells ([2]; dacarbazine 20 μg/ml alone, second stage): 12.9 ± 2.9%
- % surviving MM-4 cells ([2]; dacarbazine 40 μg/ml alone, first stage): 3.5 ± 0.7%
- % surviving MM-4 cells ([2]; dacarbazine 40 μg/ml alone, second stage): 8.4 ± 1.2%

SMILES: CC(=O)O[C@H]1C(=O)[C@@]2(C)[C@H]([C@H](OC(=O)c3ccccc3)[C@]3(O)C[C@H](OC(=O)[C@H](O)[C@@H](NC(=O)c4ccccc4)c4ccccc4)C(C)=C1C3(C)C)[C@]1(OC(C)=O)CO[C@@H]1C[C@@H]2O [paclitaxel]
- % surviving MM-4 cells ([1]; paclitaxel 3 ng/ml alone): 80 ± 2.3%
- % surviving MM-4 cells ([1]; paclitaxel 7.5 ng/ml alone): 33.4 ± 1.4%
- % surviving MM-4 cells ([1]; paclitaxel 30 ng/ml alone): 7 ± 0.8%
- % surviving MM-4 cells ([1]; paclitaxel 3 μg/ml alone): 1.9 ± 0.2%
- % surviving MM-4 cells ([2]; paclitaxel 3 ng/ml alone, first stage): 80 ± 2.3%
- % surviving MM-4 cells ([2]; paclitaxel 3 ng/ml alone, second stage): 87.7 ± 6.7%
- % surviving MM-4 cells ([2]; paclitaxel 7.5 ng/ml alone, first stage): 33.4 ± 1.4%
- % surviving MM-4 cells ([2]; paclitaxel 7.5 ng/ml alone, second stage): 49 ± 1%
- % surviving MM-4 cells ([2]; paclitaxel 15 ng/ml alone, second stage): 37 ± 4.5%
- % surviving MM-4 cells ([2]; paclitaxel 30 ng/ml alone, first stage): 7 ± 0.8%
- % surviving MM-4 cells ([2]; paclitaxel 30 ng/ml alone, second stage): 29.2 ± 4.4%
- % surviving MM-4 cells ([2]; paclitaxel 3 μg/ml alone, first stage): 1.9 ± 0.2%

SMILES: CCC1=C[C@@H]2CN(C1)Cc1c([nH]c3ccccc13)[C@@](C(=O)OC)(c1cc3c(cc1OC)N(C)[C@H]1[C@@](O)(C(=O)OC)[C@H](OC(C)=O)[C@]4(CC)C=CCN5CC[C@]31[C@@H]54)C2 [vinorelbine]
- % surviving MM-4 cells ([1]; vinorelbine 1 ng/ml alone): 10 ± 0.1%
- % surviving MM-4 cells ([1]; vinorelbine 5 ng/ml alone): 9.5 ± 0.5%
- % surviving MM-4 cells ([1]; vinorelbine 25 ng/ml alone): 2 ± 0.8%
- % surviving MM-4 cells ([1]; vinorelbine 50 ng/ml alone): 2 ± 1%
- % surviving MM-4 cells ([1]; vinorelbine 200 ng/ml alone): 1%
- % surviving MM-4 cells ([2]; vinorelbine 1 ng/ml alone, first stage): 10 ± 0.1%
- % surviving MM-4 cells ([2]; vinorelbine 1 ng/ml alone, second stage): 26 ± 2.5%
- % surviving MM-4 cells ([2]; vinorelbine 5 ng/ml alone, first stage): 9.5 ± 0.5%
- % surviving MM-4 cells ([2]; vinorelbine 5 ng/ml alone, second stage): 17.9 ± 0.9%
- % surviving MM-4 cells ([2]; vinorelbine 25 ng/ml alone, first stage): 2 ± 0.8%
- % surviving MM-4 cells ([2]; vinorelbine 25 ng/ml alone, second stage): 7.9 ± 0.5%
- % surviving MM-4 cells ([2]; vinorelbine 50 ng/ml alone, first stage): 2 ± 1%
- % surviving MM-4 cells ([2]; vinorelbine 50 ng/ml alone, second stage): 6.4 ± 0.4%
- % surviving MM-4 cells ([2]; vinorelbine 200 ng/ml alone, first stage): 1%
- % surviving MM-4 cells ([2]; vinorelbine 200 ng/ml alone, second stage): 5.6 ± 0.6%
